{"source": "patent US9499547B2", "about": "(BAYER INTELLECTUAL PROPERTY GMBH, priority 2011, dated 2016)", "key": {"human full-length MKNK1 [1]": {"molecular_target": "T1, human full-length MKNK1 (Homo sapiens (Human), UniProt Q9BUB5, T344D)", "T1 sequence (Q9BUB5 other isoform, or with tags, fused parts or gaps T344D)": "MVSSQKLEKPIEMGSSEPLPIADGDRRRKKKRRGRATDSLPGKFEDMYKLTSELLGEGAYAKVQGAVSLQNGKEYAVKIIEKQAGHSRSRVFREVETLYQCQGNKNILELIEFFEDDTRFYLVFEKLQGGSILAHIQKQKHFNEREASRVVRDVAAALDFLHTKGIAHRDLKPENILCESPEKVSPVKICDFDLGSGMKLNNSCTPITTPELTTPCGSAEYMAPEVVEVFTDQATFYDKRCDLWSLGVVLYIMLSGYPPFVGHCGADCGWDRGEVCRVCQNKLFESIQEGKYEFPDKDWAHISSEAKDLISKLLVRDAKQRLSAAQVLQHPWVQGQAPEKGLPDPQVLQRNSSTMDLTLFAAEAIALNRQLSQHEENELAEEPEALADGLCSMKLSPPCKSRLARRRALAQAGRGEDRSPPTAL", "experiment": "MKNK1 kinase high ATP assay (TR-FRET-based)", "assay_type": "biochemical", "conditions": "2 mM ATP final conc.; 15 min preincubation with enzyme", "procedure": "MKNK1 Kinase High ATP Assay\nMKNK1-inhibitory activity at high ATP of compounds of the present invention after their preincubation with MKNK1 was quantified employing the TR-FRET-based MKNK1 high ATP assay as described in the following paragraphs.\nAs substrate for the kinase reaction the biotinylated peptide biotin-Ahx-[…] (C-terminus in amide form) was used, which can be purchased e.g. from the company Biosyntan (Berlin-Buch, Germany).\n(§1) For the assay 50 nL of a 100 fold concentrated solution of the test compound in DMSO was pipetted into a black low volume 384 well microtiter plate (Greiner Bio-One, Frickenhausen, Germany), 2 μL of a solution of MKNK1 in aqueous assay buffer [50 mM HEPES pH 7.5, 5 mM magnesium chloride, 1.0 mM dithiothreitol, 0.005% (v/v) Nonidet-P40 (Sigma)] was added and the mixture was incubated for 15 min at 22° C. to allow pre-binding of the test compounds to the enzyme before the start of the kinase reaction. Then the kinase reaction was started by the addition of 3 μL of a solution of adenosine-tri-phosphate (ATP, 3.3 mM=>final conc. in the 5 μL assay volume is 2 mM) and substrate (0.1 μM=>final conc. in the 5 μL assay volume is 0.06 μM) in assay buffer and the resulting mixture was incubated for a reaction time of 30 min at 22° C. The concentration of MKNK1 was adjusted depending of the activity of the enzyme lot and was chosen appropriate to have the assay in the linear range, typical concentrations were in the range of 0.003 μg/mL. The reaction was stopped by the addition of 5 μL of a solution of TR-FRET detection reagents (5 nM streptavidine-XL665 [Cisbio Bioassays, Codolet, France] and 1 nM anti-ribosomal protein S6 (pSer236)-antibody from Invitrogen [#44921G] and 1 nM LANCE EU-W1024 labeled ProteinG [Perkin-Elmer, product no. AD0071]) in an aqueous EDTA-solution (100 mM EDTA, 0.1% (w/v) bovine serum albumin in 50 mM HEPES pH 7.5).\n(§2) The resulting mixture was incubated for 1 h at 22° C. to allow the formation of complex between the phosphorylated biotinylated peptide and the detection reagents. Subsequently the amount of phosphorylated substrate was evaluated by measurement of the resonance energy transfer from the Eu-chelate to the streptavidine-XL. Therefore, the fluorescence emissions at 620 nm and 665 nm after excitation at 350 nm were measured in a TR-FRET reader, e.g. a Rubystar (BMG Labtechnologies, Offenburg, Germany) or a Viewlux (Perkin-Elmer). The ratio of the emissions at 665 nm and at […] was taken as the measure for the amount of phosphorylated substrate. The data were normalised (enzyme reaction without inhibitor=0% inhibition, all other assay components but no enzyme=100% inhibition)."}, "human full-length MKNK1 [2]": {"molecular_target": "T1, human full-length MKNK1", "experiment": "MKNK1 kinase assay (MKNK1 TR-FRET assay)", "assay_type": "biochemical", "conditions": "10 μM ATP final conc.; 15 min preincubation with enzyme", "procedure": "MKNK1-inhibitory activity of compounds of the present invention was quantified employing the MKNK1 TR-FRET assay as described in the following paragraphs.\nAs substrate for the kinase reaction the biotinylated peptide biotin-Ahx-[…] (C-terminus in amide form) was used which can be purchased e.g. form the company Biosyntan (Berlin-Buch, Germany).\nas §1, with “16.7 μM=>final” for “3.3 mM=>final”, “10 μM)” for “2 mM)”, “45” for “30”, “0.05 μg/ml.” for “0.003 μg/mL.”\nas §2"}}, "data": [{"smiles": "C[C@H](N)COc1ccc2ncc(-c3cc4c(F)cccc4o3)n2n1", "note": "[Example 45, (2S)-1-{[3-(4-Fluoro-1-benzofuran-2-yl)imidazo[1,2-b]pyridazin-6-yl]oxy}-propan-2-amine]", "values": [{"measurement": "IC50", "setting": "human full-length MKNK1 [1]", "result": 71, "unit": "nM"}, {"measurement": "IC50", "setting": "human full-length MKNK1 [2]", "result": 17, "unit": "nM"}]}, {"smiles": "N[C@H](COc1ccc2ncc(-c3cc4c(F)cccc4o3)n2n1)c1ccccc1", "note": "[Example 46, (1S)-2-{[3-(4-Fluoro-1-benzofuran-2-yl)imidazo[1,2-b]pyridazin-6-yl]oxy}-1-phenylethanamine]", "values": [{"measurement": "IC50", "setting": "human full-length MKNK1 [1]", "result": 67, "unit": "nM"}, {"measurement": "IC50", "setting": "human full-length MKNK1 [2]", "result": 36, "unit": "nM"}]}, {"smiles": "C[C@H](CN)Oc1ccc2ncc(-c3cc4cccc(F)c4o3)n2n1", "note": "[Example 48, (2R)-2-{[3-(7-Fluoro-1-benzofuran-2-yl)imidazo[1,2-b]pyridazin-6-yl]oxy}-propan-1-amine]", "values": [{"measurement": "IC50", "setting": "human full-length MKNK1 [1]", "result": 115, "unit": "nM"}, {"measurement": "IC50", "setting": "human full-length MKNK1 [2]", "result": 71, "unit": "nM"}]}, {"smiles": "Cc1ccc2oc(-c3cnc4ccc(O[C@H](C)CN)nn34)cc2c1", "note": "[Example 49, (2R)-2-{[3-(5-Methyl-1-benzofuran-2-yl)imidazo[1,2-b]pyridazin-6-yl]oxy}-propan-1-amine]", "values": [{"measurement": "IC50", "setting": "human full-length MKNK1 [1]", "result": 154, "unit": "nM"}, {"measurement": "IC50", "setting": "human full-length MKNK1 [2]", "result": 88, "unit": "nM"}]}, {"smiles": "N[C@H](COc1ccc2ncc(-c3cc4ccccc4o3)n2n1)Cc1ccccc1", "note": "[Example 50, (2S)-1-{[3-(1-Benzofuran-2-yl)imidazo[1,2-b]pyridazin-6-yl]oxy}-3-phenylpropan-2-amine]", "values": [{"measurement": "IC50", "setting": "human full-length MKNK1 [1]", "result": 54, "unit": "nM"}, {"measurement": "IC50", "setting": "human full-length MKNK1 [2]", "result": 27, "unit": "nM"}]}, {"smiles": "NC1(COc2ccc3ncc(-c4cc5ccccc5o4)n3n2)CC1", "note": "[Example 51, 1-({[3-(1-Benzofuran-2-yl)imidazo[1,2-b]pyridazin-6-yl]oxy}methyl)cyclopropanamine]", "values": [{"measurement": "IC50", "setting": "human full-length MKNK1 [1]", "result": 74, "unit": "nM"}, {"measurement": "IC50", "setting": "human full-length MKNK1 [2]", "result": 29, "unit": "nM"}]}, {"smiles": "NCC(COc1ccc2ncc(-c3cc4ccccc4o3)n2n1)c1ccccc1", "note": "(centres unmarked) [Example 52, 3-{[3-(1-Benzofuran-2-yl)imidazo[1,2-b]pyridazin-6-yl]oxy}-2-phenylpropan-1-amine]", "values": [{"measurement": "IC50", "setting": "human full-length MKNK1 [1]", "result": 30, "unit": "nM"}, {"measurement": "IC50", "setting": "human full-length MKNK1 [2]", "result": 17, "unit": "nM"}]}]}
